Source: article PMC4161390, “Design and Synthesis of a Cell-Permeable, Drug-Like Small Molecule Inhibitor Targeting the Polo-Box Domain of Polo-Like Kinase 1” (PLoS ONE, 2014)

Target: T1, Polo-like kinase 1 polo-box domain (Plk1-PBD) (Homo sapiens, UniProt P53350)
T1 construct: HA-EGFP-Plk1 in mitotic 293A lysates
Test: ELISA-based Plk1 PBD competition assay (moderate activity)
Format: biochemical

T1 sequence (P53350 whole entry, the tested form may be a part): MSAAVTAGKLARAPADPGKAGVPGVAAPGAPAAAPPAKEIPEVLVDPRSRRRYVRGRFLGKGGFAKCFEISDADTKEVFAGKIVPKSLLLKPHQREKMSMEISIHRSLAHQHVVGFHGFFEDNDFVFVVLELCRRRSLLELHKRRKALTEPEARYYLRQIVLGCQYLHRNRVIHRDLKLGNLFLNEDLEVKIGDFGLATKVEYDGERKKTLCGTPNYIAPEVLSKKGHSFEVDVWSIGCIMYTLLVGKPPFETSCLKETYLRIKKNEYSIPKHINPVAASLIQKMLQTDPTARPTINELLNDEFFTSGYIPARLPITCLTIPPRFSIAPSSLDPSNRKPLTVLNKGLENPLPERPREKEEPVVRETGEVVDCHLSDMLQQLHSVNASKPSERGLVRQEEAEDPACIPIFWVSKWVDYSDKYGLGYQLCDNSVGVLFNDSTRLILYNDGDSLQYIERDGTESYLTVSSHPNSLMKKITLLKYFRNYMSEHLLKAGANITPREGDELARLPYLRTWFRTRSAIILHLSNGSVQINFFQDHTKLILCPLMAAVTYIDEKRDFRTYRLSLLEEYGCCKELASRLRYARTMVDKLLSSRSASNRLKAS

**Q.** With O=c1c(O)cccc2cc(O)c(O)c(O)c12 [PPG, purpurogallin] as the molecule, how does the “ELISA-based Plk1 PBD competition assay (moderate activity)” value read?
**A.** PPG PLS5 Bg-5 Bg-6|moderate weak weak weak|
